Laboratory results as given in ChEMBL document CHEMBL3885881, “DrugMatrix”.

Species on record: Rattus norvegicus
Experiment: DrugMatrix - Regimen: Daily Repeat
Format: toxicity, organism-based, Sprague-Dawley
Parameters: regimen Daily Repeat, gender Male, age 6-8 weeks
Conditions: in vivo, po, route oral GAVAGE, […]; for ABSOLUTE BASOPHIL / ABSOLUTE EOSINOPHIL / ABSOLUTE LYMPHOCYTE / ABSOLUTE MONOCYTE / ABSOLUTE SEGMENTED NEUTROPHIL / BASOPHIL / EOSINOPHIL / ERYTHROCYTE COUNT / HEMATOCRIT / HEMOGLOBIN / LEUKOCYTE COUNT / LYMPHOCYTE / MEAN CORPUSCULAR HEMOGLOBIN / MEAN CORPUSCULAR HEMOGLOBIN CONCENTRATION / MEAN CORPUSCULAR VOLUME / MONOCYTE / NEUTROPHIL / NUCLEATED RED BLOOD CELLS / PLATELET COUNT: tissue Blood; for ALANINE AMINOTRANSFERASE / ALBUMIN / ALKALINE PHOSPHATASE / ASPARTATE AMINOTRANSFERASE / BLOOD UREA NITROGEN / CARBON DIOXIDE / CHLORIDE / CHOLESTEROL / CREATINE PHOSPHOKINASE / CREATININE / GLUCOSE / LACTATE DEHYDROGENASE / LIPASE / PHOSPHORUS / POTASSIUM / SODIUM / TOTAL BILIRUBIN / TOTAL PROTEIN / URIC ACID: tissue Plasma
[1] = 0 mg/kg, 72 h, dose level Control, time 3 day
[2] = 0 mg/kg, 120 h, dose level Control, time 5 day
[3] = 4 mg/kg, 72 h, dose level Low, time 3 day

CSc1ccc2c(c1)N(CCC1CCCCN1C)c1ccccc1S2 (centres undefined) [THIORIDAZINE] was tested, and the “ABSOLUTE BASOPHIL” value [1] was 0 CELLS/uL, the “ABSOLUTE EOSINOPHIL” value [1] was 179.67 CELLS/uL and the “ABSOLUTE LYMPHOCYTE” value [1] was 11440.17 CELLS/uL. For the same compound, the “ABSOLUTE MONOCYTE” value [1] was 128.83 CELLS/uL, the “ABSOLUTE SEGMENTED NEUTROPHIL” value [1] was 1051.33 CELLS/uL and the BASOPHIL [1] was 0%. For the same compound, the EOSINOPHIL [1] was 1.33%, the “ERYTHROCYTE COUNT” value [1] was 5.53 x10E6/uL and the HEMATOCRIT [1] was 34.75%. The HEMOGLOBIN [1] was 12.88 G/DL, the “LEUKOCYTE COUNT” value [1] was 12.8 x10E3/uL and the LYMPHOCYTE [1] was 89.5%. For the same compound, the “MEAN CORPUSCULAR HEMOGLOBIN” value [1] was 23.38 pg, the “MEAN CORPUSCULAR HEMOGLOBIN CONCENTRATION” value [1] was 37.12 G/DL and the “MEAN CORPUSCULAR VOLUME” value [1] was 62.88 fL. For the same compound, the MONOCYTE [1] was 1%, the NEUTROPHIL [1] was 8.17% and the “NUCLEATED RED BLOOD CELLS” value [1] was 0 /100WBC. The “PLATELET COUNT” value [1] was 1292 x10E3/uL, the “ALANINE AMINOTRANSFERASE” value [1] was 58.67 u/L and the ALBUMIN [1] was 4.25 G/DL. For the same compound, the “ALKALINE PHOSPHATASE” value [1] was 437.83 u/L, the “ASPARTATE AMINOTRANSFERASE” value [1] was 85.17 u/L and the “BLOOD UREA NITROGEN” value [1] was 14.17 mg/dL. For the same compound, the “CARBON DIOXIDE” value [1] was 28.67 mmol/L, the CHLORIDE [1] was 102.17 MEQ/L and the CHOLESTEROL [1] was 68.5 mg/dL. For the same compound, the “CREATINE PHOSPHOKINASE” value [1] was 271.83 u/L, the CREATININE [1] was 0.2 mg/dL and the GLUCOSE [1] was 156.67 mg/dL. The “LACTATE DEHYDROGENASE” value [1] was 112.33 u/L, the LIPASE [1] was 9.33 u/L and the PHOSPHORUS [1] was 11.1 mg/dL. For the same compound, the POTASSIUM [1] was 6.46 MEQ/L, the SODIUM [1] was 144.37 MEQ/L and the “TOTAL BILIRUBIN” value [1] was 0.23 mg/dL. For the same compound, the “TOTAL PROTEIN” value [1] was 5.8 G/DL, the “URIC ACID” value [1] was 1.55 mg/dL and the “ABSOLUTE BASOPHIL” value [2] was 0 CELLS/uL. For the same compound, the “ABSOLUTE EOSINOPHIL” value [2] was 87 CELLS/uL, the “ABSOLUTE LYMPHOCYTE” value [2] was 14743.5 CELLS/uL and the “ABSOLUTE MONOCYTE” value [2] was 187 CELLS/uL. The “ABSOLUTE SEGMENTED NEUTROPHIL” value [2] was 1499.17 CELLS/uL, the BASOPHIL [2] was 0% and the EOSINOPHIL [2] was 0.5%. For the same compound, the “ERYTHROCYTE COUNT” value [2] was 5.84 x10E6/uL, the HEMATOCRIT [2] was 36.3% and the HEMOGLOBIN [2] was 13.55 G/DL. For the same compound, the “LEUKOCYTE COUNT” value [2] was 16.52 x10E3/uL, the LYMPHOCYTE [2] was 89.5% and the “MEAN CORPUSCULAR HEMOGLOBIN” value [2] was 23.25 pg. The “MEAN CORPUSCULAR HEMOGLOBIN CONCENTRATION” value [2] was 37.35 G/DL, the “MEAN CORPUSCULAR VOLUME” value [2] was 62.27 fL and the MONOCYTE [2] was 1.17%. The NEUTROPHIL [2] was 8.83%, the “NUCLEATED RED BLOOD CELLS” value [2] was 0.17 /100WBC and the “PLATELET COUNT” value [2] was 1233.5 x10E3/uL. The “ALANINE AMINOTRANSFERASE” value [2] was 62.5 u/L, the ALBUMIN [2] was 4.17 G/DL and the “ALKALINE PHOSPHATASE” value [2] was 464.33 u/L. For the same compound, the “ASPARTATE AMINOTRANSFERASE” value [2] was 99.67 u/L, the “BLOOD UREA NITROGEN” value [2] was 14.33 mg/dL and the “CARBON DIOXIDE” value [2] was 26 mmol/L. For the same compound, the CHLORIDE [2] was 102.33 MEQ/L, the CHOLESTEROL [2] was 60.67 mg/dL and the “CREATINE PHOSPHOKINASE” value [2] was 402.5 u/L. The CREATININE [2] was 0.22 mg/dL, the GLUCOSE [2] was 173.5 mg/dL and the “LACTATE DEHYDROGENASE” value [2] was 518.17 u/L. The LIPASE [2] was 10.83 u/L, the PHOSPHORUS [2] was 11.4 mg/dL and the POTASSIUM [2] was 6.13 MEQ/L. For the same compound, the SODIUM [2] was 142.63 MEQ/L, the “TOTAL BILIRUBIN” value [2] was 0.17 mg/dL and the “TOTAL PROTEIN” value [2] was 6.1 G/DL. For the same compound, the “URIC ACID” value [2] was 1.97 mg/dL, the “ABSOLUTE BASOPHIL” value [3] was 0 CELLS/uL and the “ABSOLUTE EOSINOPHIL” value [3] was 0 CELLS/uL. The “ABSOLUTE LYMPHOCYTE” value [3] was 12903.67 CELLS/uL, the “ABSOLUTE MONOCYTE” value [3] was 46 CELLS/uL and the “ABSOLUTE SEGMENTED NEUTROPHIL” value [3] was 817 CELLS/uL. For the same compound, the BASOPHIL [3] was 0%, the EOSINOPHIL [3] was 0% and the “ERYTHROCYTE COUNT” value [3] was 5.52 x10E6/uL. For the same compound, the HEMATOCRIT [3] was 35.4%, the HEMOGLOBIN [3] was 13.13 G/DL and the “LEUKOCYTE COUNT” value [3] was 13.77 x10E3/uL. For the same compound, the LYMPHOCYTE [3] was 93.67%, the “MEAN CORPUSCULAR HEMOGLOBIN” value [3] was 23.8 pg and the “MEAN CORPUSCULAR HEMOGLOBIN CONCENTRATION” value [3] was 37.1 G/DL. For the same compound, the “MEAN CORPUSCULAR VOLUME” value [3] was 64.17 fL, the MONOCYTE [3] was 0.33% and the NEUTROPHIL [3] was 6%. For the same compound, the “NUCLEATED RED BLOOD CELLS” value [3] was 0 /100WBC, the “PLATELET COUNT” value [3] was 1132.33 x10E3/uL and the “ALANINE AMINOTRANSFERASE” value [3] was 50 u/L. The ALBUMIN [3] was 4.1 G/DL, the “ALKALINE PHOSPHATASE” value [3] was 495.33 u/L and the “ASPARTATE AMINOTRANSFERASE” value [3] was 79.67 u/L. For the same compound, the “BLOOD UREA NITROGEN” value [3] was 12 mg/dL, the “CARBON DIOXIDE” value [3] was 28.67 mmol/L and the CHLORIDE [3] was 101.67 MEQ/L. The CHOLESTEROL [3] was 70.67 mg/dL, the “CREATINE PHOSPHOKINASE” value [3] was 382.67 u/L and the CREATININE [3] was 0.17 mg/dL. For the same compound, the GLUCOSE [3] was 176.33 mg/dL, the “LACTATE DEHYDROGENASE” value [3] was 65.33 u/L and the LIPASE [3] was 9.67 u/L. The PHOSPHORUS [3] was 11.5 mg/dL, the POTASSIUM [3] was 6.31 MEQ/L and the SODIUM [3] was 142.93 MEQ/L. For the same compound, the “TOTAL BILIRUBIN” value [3] was 0.2 mg/dL, the “TOTAL PROTEIN” value [3] was 5.57 G/DL and the “URIC ACID” value [3] was 1.93 mg/dL.
